The target of data set [1] is T1, Substance-K receptor (Homo sapiens, UniProt P21452).
T1 sequence (P21452 whole entry): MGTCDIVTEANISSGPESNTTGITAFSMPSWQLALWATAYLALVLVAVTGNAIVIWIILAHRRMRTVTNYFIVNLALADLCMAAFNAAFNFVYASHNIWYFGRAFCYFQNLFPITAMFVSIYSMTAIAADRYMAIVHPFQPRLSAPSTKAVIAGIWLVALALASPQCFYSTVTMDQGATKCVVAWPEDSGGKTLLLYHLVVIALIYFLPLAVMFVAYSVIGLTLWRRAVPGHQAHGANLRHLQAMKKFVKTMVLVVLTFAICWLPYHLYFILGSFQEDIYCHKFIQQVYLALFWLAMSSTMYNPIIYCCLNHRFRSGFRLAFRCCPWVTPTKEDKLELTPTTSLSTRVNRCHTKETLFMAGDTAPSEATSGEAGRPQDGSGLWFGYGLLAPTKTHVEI
The data set can be described thus: Displacement of [125I]NKA from human NK2 expressed in CHO-K1 cells. The class given is cell-based.

Data set [2] deals with T2, Substance-K receptor (Cavia porcellus, UniProt Q64077).
T2 sequence (Q64077 whole entry): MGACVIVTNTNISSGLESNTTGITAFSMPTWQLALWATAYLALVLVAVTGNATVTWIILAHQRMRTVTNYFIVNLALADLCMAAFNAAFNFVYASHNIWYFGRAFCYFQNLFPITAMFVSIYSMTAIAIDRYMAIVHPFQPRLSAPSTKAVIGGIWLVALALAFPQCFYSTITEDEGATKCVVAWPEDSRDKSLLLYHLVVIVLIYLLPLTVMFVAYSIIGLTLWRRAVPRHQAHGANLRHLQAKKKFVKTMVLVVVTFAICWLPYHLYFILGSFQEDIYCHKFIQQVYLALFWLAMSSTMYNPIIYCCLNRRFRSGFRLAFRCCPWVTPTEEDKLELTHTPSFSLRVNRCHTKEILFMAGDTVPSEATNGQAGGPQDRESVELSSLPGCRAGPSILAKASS
The data set is described as follows: […] activity at NK2 receptor in guinea pig smooth muscle. The class given is functional.

A short description of data set [3]: Solubility at pH 7.4. The class given is physicochemical. Particulars: buffer.
The nature of data set [4]: Metabolic stability in guinea pig liver S9 fraction after 30 mins. The following applies: read-out: Stability. The class given is ADME, subcellular, Cavia porcellus.

The text below walks through data of ChEMBL document CHEMBL1149644, “alpha,alpha-Cyclic aminoacids as useful scaffolds for the preparation of hNK(2) receptor antagonists” (Bioorg Med Chem Lett, 2007).

Each structure is given as a SMILES string. Converted amounts (≈) assume the structure as drawn.

For `CN1CCN(CCCNC(=O)[C@@H](Cc2ccccc2)NC(=O)C2(NC(=O)c3cc4ccccc4s3)CCCC2)CC1`, in data set [1], the affinity, expressed as Ki, was 0.002 µM. `CN1CCN(CCCNC(=O)[C@@H](Cc2ccccc2)NC(=O)C2(NC(=O)c3cc4ccccc4s3)CCCCC2)CC1` had a Ki in data set [1] of 0.00398 µM.

Regarding `NCCCCCNC(=O)[C@H](Cc1ccccc1)NC(=O)C1(NC(=O)c2cc3ccccc3s2)CCCCC1`, the Ki in data set [1] was 0.398 µM. Same read-out and setting: next, `NCCOCCOCCNC(=O)[C@H](Cc1ccccc1)NC(=O)C1(NC(=O)c2cc3ccccc3s2)CCCCC1`: 0.0126 µM. The same measure, in the same setting: the same measure for `NCc1ccc(CNC(=O)[C@H](Cc2ccccc2)NC(=O)C2(NC(=O)c3cc4ccccc4s3)CCCCC2)cc1`: 0.126 µM. Regarding `CCC(CC)(NC(=O)c1cc2ccccc2s1)C(=O)N[C@@H](Cc1ccccc1)C(=O)NCCOCCOCCN`, the Ki in data set [1] is above 1 µM. In data set [1], `CC(C)(NC(=O)c1cc2ccccc2s1)C(=O)N[C@@H](Cc1ccccc1)C(=O)NCCOCCOCCN` had a Ki of 0.1 µM.

In data set [1], `NCCOCCOCCNC(=O)[C@H](Cc1ccccc1)NC(=O)CNC(=O)c1cc2ccccc2s1` had an inhibition constant (Ki) above 10 µM. Regarding `NCCCCCCNC(=O)C(Cc1ccccc1)NC(=O)C1(NC(=O)c2cc3ccccc3s2)CCCCC1` (stereo unspecified), the Ki is 0.251 µM in data set [1] and above 1 µM in data set [2]. With `CCN(CC)CCCNC(=O)C(Cc1ccccc1)NC(=O)C1(NC(=O)c2cc3ccccc3s2)CCCCC1` (stereo unspecified), the affinity in data set [1] corresponds to a Ki of 0.1 µM. On the same count and under the same terms, next, `NCCCCCCCCNC(=O)C(Cc1ccccc1)NC(=O)C1(NC(=O)c2cc3ccccc3s2)CCCCC1` (stereo unspecified): 0.126 µM; `NCCOCCOCCNC(=O)[C@H](Cc1ccccc1)NC(=O)C1(NC(=O)c2cc3ccccc3s2)Cc2ccccc2C1`: 0.02 µM. For `CN1CCN(CCCNC(=O)[C@@H](Cc2ccccc2)NC(=O)C2(NC(=O)c3cc4ccccc4s3)Cc3ccccc3C2)CC1`, the figures for the inhibitory constant (Ki) in data set [1] and in data set [2] were 0.00251 µM and 0.126 µM, respectively.

In turn, `CCN(CC)CCNC(=O)C(Cc1ccccc1)NC(=O)C1(NC(=O)c2cc3ccccc3s2)CCCCC1` (stereo unspecified) showed a Ki in data set [1] of 0.1 µM. `CN1CCN(CCCNC(=O)[C@H](Cc2ccccc2)NC(=O)C2(NC(=O)c3cc4ccccc4s3)CCCCC2)CC1`: the affinity in data set [1] corresponds to a Ki of 0.1 µM. In turn, `CCCCN(CCCC)CCCNC(=O)[C@@H](Cc1ccccc1)NC(=O)C1(NC(=O)c2cc3ccccc3s2)CCCCC1` had a Ki in data set [2] of 0.2 µM. `O=C(NC1(C(=O)N[C@@H](Cc2ccccc2)C(=O)NCCCN2CCCC2)CCCCC1)c1cc2ccccc2s1`: in data set [1], the Ki was 0.02 µM. Turning to `O=C(NC1(C(=O)N[C@H](Cc2ccccc2)C(=O)NCCCN2CCCC2)CCCCC1)c1cc2ccccc2s1`, the values for the Ki in data set [1] and in data set [2] were 0.00398 µM and above 1 µM, respectively. `O=C(NC1(C(=O)NC(Cc2ccccc2)C(=O)NCCN2CCOCC2)CCCCC1)c1cc2ccccc2s1` (stereo unspecified) gave a Ki in data set [1] of 0.1 µM. The same measure, in the same setting: the same measure for `CN1CCCC1CCCNC(=O)C(Cc1ccccc1)NC(=O)C1(NC(=O)c2cc3ccccc3s2)CCCCC1` (stereo unspecified): 0.0501 µM; for `CC(C)C[C@@H](NC(=O)[C@H](Cc1ccccc1)NC(=O)C1(NC(=O)c2cc3ccccc3s2)CCCCC1)C(N)=O`: 0.0708 µM.

Molecule `CC(C)C[C@@H](NC(=O)[C@@H](Cc1ccccc1)NC(=O)C1(NC(=O)c2cc3ccccc3s2)CCCCC1)C(N)=O` gave a Ki in data set [1] of 0.0501 µM. `O=C(NC1(C(=O)N[C@H](Cc2ccccc2)C(=O)NCCCN2CCOCC2)CCCC1)c1cc2ccccc2s1` displayed a solubility in data set [3] of 100 µg/mL (≈ 178 µM). Also, the remaining at 0.5 h in data set [4] was found to be 4%. For `NCCOCCOCCNC(=O)[C@H](Cc1ccccc1)NC(=O)C1(NC(=O)c2cc3ccccc3s2)CCc2ccccc21` (stereo partly specified), the Ki in data set [1] is 0.0126 µM. In turn, `NCCOCCOCCNC(=O)[C@H](Cc1ccccc1)NC(=O)C1(NC(=O)c2cc3ccccc3s2)CCc2ccccc2C1` (stereo partly specified) gave a Ki in data set [1] of 0.398 µM. Molecule `CC(C)C[C@H](NC(=O)[C@H](Cc1ccccc1)NC(=O)C1(NC(=O)c2cc3ccccc3s2)CCCCC1)C(N)=O` showed a Ki in data set [1] of 10 µM. In data set [1], `O=C(NC1(C(=O)N[C@@H](Cc2ccccc2)C(=O)NC2CC2)CCCCC1)c1cc2ccccc2s1` showed an inhibition constant (Ki) of 0.316 µM. In the case of `CN(C)CCCNC(=O)[C@H](Cc1ccccc1)NC(=O)C1(NC(=O)c2cc3ccccc3s2)CCCCC1`, the inhibition constant Ki in data set [1] is 0.316 µM. For the molecule `O=C(NC1(C(=O)N[C@H](Cc2ccccc2)C(=O)NCCCN2CCCC2)Cc2ccccc2C1)c1cc2ccccc2s1`, the Ki was 0.00126 µM in data set [1] and 0.2 µM in data set [2]. For the molecule `CC1CCCCN1CCCNC(=O)[C@H](Cc1ccccc1)NC(=O)C1(NC(=O)c2cc3ccccc3s2)CCCCC1` (stereo partly specified), the inhibition constant Ki in data set [1] was 0.00794 µM; in data set [2], above 3.16 µM.

For the molecule `CC1CCCCN1CCCNC(=O)[C@@H](Cc1ccccc1)NC(=O)C1(NC(=O)c2cc3ccccc3s2)CCCCC1` (stereo partly specified), the Ki is 0.000398 µM in data set [1] and 0.2 µM in data set [2]. Regarding `CCCCN(CCCC)CCCNC(=O)[C@@H](Cc1ccccc1)NC(=O)C1(NC(=O)c2cc3ccccc3s2)Cc2ccccc2C1`, the Ki is 0.00158 µM in data set [1] and 0.2 µM in data set [2]. `CCCCN(CCCC)CCCNC(=O)[C@H](Cc1ccccc1)NC(=O)C1(NC(=O)c2cc3ccccc3s2)CCCCC1`: the Ki in data set [1] is 0.00631 µM. `O=C(NC1(C(=O)N[C@H](Cc2ccccc2)C(=O)NCCCN2CCOCC2)Cc2ccccc2C1)c1cc2ccccc2s1`: the Ki in data set [1] is 0.002 µM; in data set [2], 0.1 µM. With `NCCOCCOCCNC(=O)[C@H](Cc1ccccc1)NC(=O)C1(NC(=O)c2cc3ccccc3s2)CCCC1`, the affinity in data set [1], expressed as Ki, was 0.0501 µM.

Take `CC(C)N(CCNC(=O)C(Cc1ccccc1)NC(=O)C1(NC(=O)c2cc3ccccc3s2)CCCCC1)C(C)C` (stereo unspecified): the inhibition constant (Ki) in data set [1] was 0.0316 µM. For the molecule `O=C(NC1(C(=O)N[C@H](Cc2ccccc2)C(=O)NCCCN2CCOCC2)CCCCC1)c1cc2ccccc2s1`, affinity in data set [2] was put at a Ki of 0.1 µM.

Regarding `CCN(CC)CCCNC(=O)[C@H](Cc1ccccc1)NC(=O)C1(NC(=O)c2cc3ccccc3s2)CCCCC1`, the Ki in data set [1] was 0.0398 µM. In turn, `NCCCCCCCNC(=O)C(Cc1ccccc1)NC(=O)C1(NC(=O)c2cc3ccccc3s2)CCCCC1` (stereo unspecified) showed an inhibition constant Ki in data set [1] of 0.1 µM.

In the case of `CC(C)C[C@H](NC(=O)[C@@H](Cc1ccccc1)NC(=O)C1(NC(=O)c2cc3ccccc3s2)CCCCC1)C(N)=O`, the inhibitory constant (Ki) in data set [1] is 0.316 µM.

`O=C(NC1(C(=O)NC(Cc2ccccc2)C(=O)NCCN2CCCCC2)CCCCC1)c1cc2ccccc2s1` (stereo unspecified) gave a Ki in data set [1] of 0.0631 µM.

In data set [1], `O=C(NC1(C(=O)N[C@@H](Cc2ccccc2)C(=O)NCCCN2CCOCC2)CCCCC1)c1cc2ccccc2s1` gave a Ki of 0.0251 µM. In turn, `CCCCN(CCCC)CCCNC(=O)[C@@H](Cc1ccccc1)NC(=O)C1(NC(=O)c2cc3ccccc3s2)CCc2ccccc21` (stereo in doubt; 45a) showed an inhibitory constant (Ki) in data set [1] of 0.0316 µM. Consider `CCCCN(CCCC)CCCNC(=O)[C@@H](Cc1ccccc1)NC(=O)C1(NC(=O)c2cc3ccccc3s2)CCc2ccccc21` (stereo in doubt; 45b), for which the Ki in data set [1] was 0.00158 µM.

As to `O=C(NC1(C(=O)N[C@H](Cc2ccccc2)C(=O)NCCCN2CCCC2)CCc2ccccc21)c1cc2ccccc2s1` (stereo in doubt; 46a), the Ki in data set [1] is 0.00631 µM.

Molecule `O=C(NC1(C(=O)N[C@H](Cc2ccccc2)C(=O)NCCCN2CCCC2)CCc2ccccc21)c1cc2ccccc2s1` (stereo in doubt; 46b) had a Ki in data set [1] of 0.00126 µM. As for `O=C(NC1(C(=O)N[C@H](Cc2ccccc2)C(=O)NCCCN2CCOCC2)CCc2ccccc21)c1cc2ccccc2s1` (stereo in doubt; 47a), the Ki in data set [1] is 0.1 µM.

For the molecule `O=C(NC1(C(=O)N[C@H](Cc2ccccc2)C(=O)NCCCN2CCOCC2)CCc2ccccc21)c1cc2ccccc2s1` (stereo in doubt; 47b), the inhibitory constant (Ki) in data set [1] is 0.002 µM; in data set [2], 0.02 µM.

The molecule `CN1CCN(CCCNC(=O)[C@@H](Cc2ccccc2)NC(=O)C2(NC(=O)c3cc4ccccc4s3)CCc3ccccc32)CC1` (stereo in doubt; 48a) gave a Ki in data set [1] above 0.1 µM. For the molecule `CN1CCN(CCCNC(=O)[C@@H](Cc2ccccc2)NC(=O)C2(NC(=O)c3cc4ccccc4s3)CCc3ccccc32)CC1` (stereo in doubt; 48b), the Ki in data set [1] was 0.001 µM; in data set [2], 0.0251 µM.
